The values below come from patent publication US20230228744A1, “DRY EYE DISEASE BIOMARKERS AND THEIR USE FOR TREATMENT” (Aldeyra Therapeutics, Inc., priority 2020, published 2023).

The test is described as follows: Exploratory aldehyde trapping studies in PBS and ACN/H2O (MS). It is filed as biochemical. The note with it: 10 μM aldehyde, 1 mM trapping reagent, PBS or 50/50 ACN/H2O. As to the method: Semicarbazide (SCZ), glutathione (GSH), cysteine, and N-acetyl cysteine were used as trapping agents with the aldehydes 4-hydroxynonenal (4-HNE), malondialdehyde, acetaldehyde, hexanal, pentanal, and decanal. 10 μM of aldehyde was mixed with 1 mM of trapping reagent in either PBS or 50/50 ACN/H2O.

Take `NNC(N)=O` [semicarbazide, Semicarbazide]: the “trapping effectiveness, comparison of trapping agents” value is “more effective than GSH” and the “trapping of aldehydes as judged by MS” value was “appeared to trap aldehydes”.

For `N[C@@H](CCC(=O)N[C@@H](CS)C(=O)NCC(=O)O)C(=O)O` [glutathione], the “trapping of aldehydes as judged by MS” value was “appeared to trap aldehydes”.
